Experimental data published in PubChem BioAssay AID1033 (Sanford-Burnham Center for Chemical Genomics, 2008).
Active and inactive are the calls of the source. How the calls were made is not given here.

Biological target: Chaperone protein DnaK (Escherichia coli (strain K12)) (UniProt P0A6Y8)
Test: binders of DnaK substrate-binding domain, biophysical, NMR, chaperone (AID 1033)
Settings: Purified DnaK SBD, NMR ligand binding

Chain of Chaperone protein DnaK (Escherichia coli (strain K12)) (P0A6Y8 whole entry, looked up, the tested form may be a part): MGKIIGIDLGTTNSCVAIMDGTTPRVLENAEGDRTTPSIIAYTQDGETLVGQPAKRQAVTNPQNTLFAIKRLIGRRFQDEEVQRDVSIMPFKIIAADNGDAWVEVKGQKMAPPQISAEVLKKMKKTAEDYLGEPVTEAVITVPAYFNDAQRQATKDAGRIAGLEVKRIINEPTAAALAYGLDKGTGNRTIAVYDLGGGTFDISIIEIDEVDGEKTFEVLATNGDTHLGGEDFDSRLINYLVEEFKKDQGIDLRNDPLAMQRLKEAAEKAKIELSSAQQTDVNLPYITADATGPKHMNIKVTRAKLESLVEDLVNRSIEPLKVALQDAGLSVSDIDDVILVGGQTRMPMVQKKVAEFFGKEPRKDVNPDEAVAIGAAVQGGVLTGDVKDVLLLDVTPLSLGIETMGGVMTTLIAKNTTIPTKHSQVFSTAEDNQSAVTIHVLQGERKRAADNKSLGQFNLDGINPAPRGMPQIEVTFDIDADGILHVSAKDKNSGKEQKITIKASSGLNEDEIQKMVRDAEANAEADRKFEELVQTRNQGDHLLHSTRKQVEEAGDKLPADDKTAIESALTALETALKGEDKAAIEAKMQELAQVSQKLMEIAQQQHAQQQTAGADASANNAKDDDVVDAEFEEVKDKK

| SMILES | Kd |
| --- | --- |
| CC(=O)O[C@@H]1CC2C(C)(CC[C@H](O)C2(C)C)C2CC[C@]3(C)C(=CC(=O)O[C@H]3c3ccoc3)C21C (stereo partly specified) | > 4 mM (inactive) |
| Cc1scc(C(=O)Nc2ccon2)c1-c1ccccc1 | > 4 mM (inactive) |
| O=c1cnnc(Nc2ccc(O)cc2)[nH]1 | > 4 mM (inactive) |
| COC(=O)CSc1ncnc2c(C)csc12 | > 4 mM (inactive) |
| COC(=O)C[C@H]1C(C)(C)C(=O)[C@@H]2CC3=C(CC[C@]4(C)C3=CC(=O)O[C@H]4c3ccoc3)C1(C)C2=O | > 4 mM (inactive) |
| CS(=O)(=O)N1CCC(C(=O)NC2CCCC2)CC1 | > 4 mM (inactive) |
| Cc1nc(-c2ccc(NS(C)(=O)=O)cc2)cs1 | > 4 mM (inactive) |
| O=C1NCC(=O)N2CCc3ccccc3C12 (stereo unspecified) | > 4 mM (inactive) |
| CNC(=S)Nc1cccc(C(=O)O)c1 | > 4 mM (inactive) |
| NC(=O)c1oc2ccccc2c1N | > 4 mM (inactive) |
| Cc1nnsc1C(=O)Nc1ccc(C(N)=O)cc1 | > 4 mM (inactive) |
| Cn1c(=O)cc(O)c2ccccc21 | > 4 mM (inactive) |
| Cc1[nH]c2ccccc2c1C(=O)CSc1ncn[nH]1 | > 4 mM (inactive) |
| NC(=O)CSc1ccc(Br)cc1 | > 4 mM (inactive) |
| Cn1c(=O)c2c([nH]c(=O)n2C)n(C)c1=O | > 4 mM (inactive) |
| Cc1nnc(SCC(=O)Nc2ccccc2)[nH]c1=O | > 4 mM (inactive) |
| NCc1ccc2occc2c1 | > 4 mM (inactive) |
| O=C(O)CCc1c[nH]c2ccccc12 | > 4 mM (inactive) |
| NC(=O)c1ccccc1N=Cc1ccco1 | > 4 mM (inactive) |
| CC(C)(C)NC(=O)N1CCC(C(N)=O)CC1 | > 4 mM (inactive) |
| CC(=O)O[C@H]1C[C@@]2(C)[C@@H](C[C@@H](O)C3[C@]2(C)CC[C@H]2[C@H](C)[C@H](O)CC[C@]32C)/C1=C(/CCC=C(C)C)C(=O)O (stereo partly specified) | > 4 mM (inactive) |
| Cc1nc2ccccc2c(=O)n1/N=C/c1ccco1 | > 4 mM (inactive) |
| CC(=O)Nc1cccc(-c2nnc3n2CC(C)S3)c1 (stereo unspecified) | > 4 mM (inactive) |
| Cc1cc(O)cc(=O)n1CCCC(=O)O | > 4 mM (inactive) |

| SMILES | Kd |
| --- | --- |
| COc1ccc(NC2=NCC(C)S2)cc1 (stereo unspecified) | > 4 mM (inactive) |
| Cc1ccc(C(=O)CS(C)(=O)=O)cc1 | > 4 mM (inactive) |
| Cc1c(N=Cc2ccc[nH]2)c(=O)n(-c2ccccc2)n1C | > 4 mM (inactive) |
| COc1ccccc1NC(N)=S | > 4 mM (inactive) |
| Nc1ccc2c(c1)CCCC2=O | > 4 mM (inactive) |
| CC(C)c1nnc(N)s1 | > 4 mM (inactive) |
| NCc1ccc(-c2cccs2)cc1 | > 4 mM (inactive) |
| O=C1NC(=S)NC(=O)C1=Cc1ccccc1O | > 4 mM (inactive) |
| COc1cccc2onc(N)c12 | > 4 mM (inactive) |
| O=C(O)c1ccc2ncccc2c1 | > 4 mM (inactive) |
| NC(=O)CC1NC(=O)c2ccccc21 (stereo unspecified) | > 4 mM (inactive) |
| CC(=O)Nc1ccc(-c2nc(C)c(C(C)=O)n2O)cc1 | > 4 mM (inactive) |
| O=C1CC(=O)N(c2cccc(Cl)c2)N1 | > 4 mM (inactive) |
| CC(=O)Nc1sc(C)c(C)c1C(N)=O | > 4 mM (inactive) |
| CC(=O)NC12CC3CC(CC(O)(C3)C1)C2 | > 4 mM (inactive) |
| CCn1cnc2cc(NCc3ccncc3)ccc21 | > 4 mM (inactive) |
| Cc1cc(NC(=O)c2cnn3cccnc23)no1 | > 4 mM (inactive) |
| Cn1c2ccccc2n2c(=S)[nH]nc12 | > 4 mM (inactive) |
| Cc1ccc(-c2c(C)n([O-])c(C)c(C)[n+]2=O)cc1 | > 4 mM (inactive) |
| O=C1CCNc2cc3ccccc3cc21 | > 4 mM (inactive) |
| Nc1ncnc(NCCO)c1[N+](=O)[O-] | > 4 mM (inactive) |
| O=C1CCCc2c(O)cccc21 | > 4 mM (inactive) |
| Oc1ccc2nonc2c1 | > 4 mM (inactive) |
| Cc1cc(NC(=O)c2c(F)c(F)c(F)c(F)c2F)no1 | > 4 mM (inactive) |

| SMILES | Kd |
| --- | --- |
| CSc1nnnn1-c1cccc(O)c1 | > 4 mM (inactive) |
| O=S1(=O)C=C(Nc2ccccc2)CC1 | > 4 mM (inactive) |
| Cc1c(CO)cnn1-c1ccc(F)cc1 | > 4 mM (inactive) |
| Nc1cccc2cccnc12 | > 4 mM (inactive) |
| O=C(O)c1cncc(-c2ccccc2)c1 | > 4 mM (inactive) |
| C[C@@H]1O[C@@H](O[C@H]2CC[C@]3(C=O)C4CC[C@]5(C)[C@@H](C6=CC(=O)OC6)CC[C@]5(O)C4CC[C@]3(O)C2)[C@H](O)[C@H](O)[C@H]1O (stereo partly specified) | > 4 mM (inactive) |
| CC(=O)O[C@@H]1C=C[C@@]2(C)C(C[C@@H](OC(C)=O)[C@@]3(C)C4=CC(=O)O[C@@H](c5ccoc5)[C@]4(C)CCC23)C1(C)C (stereo partly specified) | > 4 mM (inactive) |
| OC1CCNC2CCCCC12 (stereo unspecified) | > 4 mM (inactive) |
| O=C(Nc1ccc2c(c1)OCO2)c1c(F)cccc1F | > 4 mM (inactive) |
| O=C1C=C(O)c2ccccc2C1=O | > 4 mM (inactive) |
| CN1CCC2(CC1)CC1CC3C=CC1(CN2)O3 (stereo unspecified) | > 4 mM (inactive) |
| O=C1c2ccccc2C(=O)N1CCc1ccccn1 | > 4 mM (inactive) |
| CC(=O)c1ccc(NS(=O)(=O)c2cccc(C)c2)cc1 | > 4 mM (inactive) |
| COc1ccc2c(C)cc(=O)oc2c1 | > 4 mM (inactive) |
| C[C@@H]1OC(O[C@H]2[C@H](OC(=O)[C@]34CCC(C)(C)CC3C3=CCC5[C@@]6(C)CC[C@H](OC7O[C@@H](C)[C@H](O[C@@H]8OC[C@@H](O)[C@H](O)[C@H]8O)[C@@H](O)[C@H]7O)C(C)(C)C6CC[C@@]5(C)[C@]3(C)CC4O)OC[C@H](O)[C@H]2O)[C@H](O)[C@H](O)[C@H]1O[C@@H]1O[C@H](CO)[C@@H](O)[C@H](O)[C@H]1O (stereo partly specified) | > 4 mM (inactive) |
| Cc1cc(C(=O)Nc2ccc3c(c2)OCCO3)c(C)o1 | > 4 mM (inactive) |
| O=C1CCCN1C(=O)c1ccc(F)cc1 | > 4 mM (inactive) |
| O=[n+]1cc(C2=CC=CCC2)n([O-])c2c1CCCCC2 | > 4 mM (inactive) |
| CC(=O)c1c(C)nc(-c2cccs2)n1O | > 4 mM (inactive) |
| O=C(O)C(Cc1cnc[nH]1)N1C(=O)c2ccccc2C1=O (stereo unspecified) | > 4 mM (inactive) |
| NC(=O)c1ccc(N2CCCCC2)c(N)c1 | > 4 mM (inactive) |
| O=C1CCC([N+](=O)[O-])C(c2ccccc2F)N1 (stereo unspecified) | > 4 mM (inactive) |
| Cc1cc(=O)oc2cc(O)c(O)cc12 | > 4 mM (inactive) |
| O=C1CCC(=O)N1c1cccnc1 | > 4 mM (inactive) |

| SMILES | Kd |
| --- | --- |
| CC(=O)CS(=O)(=O)c1ccccc1 | > 4 mM (inactive) |
| COC(=O)c1ccccc1N(C)S(C)(=O)=O | > 4 mM (inactive) |
| C=CC1=C(C)/C(=C/c2[nH]c(Cc3[nH]c(/C=C4\NC(=O)C(C)=C4C=C)c(C)c3CCC(=O)O)c(CCC(=O)O)c2C)NC1=O | > 4 mM (inactive) |
| COn1c(=O)c(C)[n+]([O-])c2ccccc21 | > 4 mM (inactive) |
| O=C(O)c1cc2ccccc2cn1 | > 4 mM (inactive) |
| CN(C)c1nc(N)nc(Cn2ccnc2)n1 | > 4 mM (inactive) |
| NC(=O)c1cc(N)cc(C(N)=O)c1 | > 4 mM (inactive) |
| Cc1ccccc1C(=O)Nn1cnnc1 | > 4 mM (inactive) |
| COc1cc2c(c(OC)c1OC)-c1ccc(O)c(=O)cc1[C@@H](NC(C)=O)CC2 | > 4 mM (inactive) |
| CC(=O)c1ccc(CC2SC(N)=NC2=O)cc1 (stereo unspecified) | > 4 mM (inactive) |
| S=c1oc(-c2ccncc2)nn1CCc1ccncc1 | > 4 mM (inactive) |
| Cc1nn(-c2ccccc2)nc1CO | > 4 mM (inactive) |
| Oc1ccc(C(=S)N2CCOCC2)cc1 | > 4 mM (inactive) |
| Nc1nonc1-c1nc2ccccc2[nH]1 | > 4 mM (inactive) |
| NCc1ccccc1N1CCOCC1 | > 4 mM (inactive) |
| CCOC(=O)CN1C(=O)c2ccccc2C1=O | > 4 mM (inactive) |
| CCN1CC2(C)CC[C@H](OC)[C@]34C2[C@H](O)C2(OCO[C@@]25C[C@H](OC)[C@H]2C[C@]3(O)C5[C@H]2O)C14 | > 4 mM (inactive) |
| Cc1cccc(CSc2nncc(=O)[nH]2)c1 | > 4 mM (inactive) |
| O=c1c(O)c(-c2ccccc2)oc2cc(O)ccc12 | > 4 mM (inactive) |
| C/C=C/c1ccc2c(c1)OCO2 | > 4 mM (inactive) |
| CS/C(N)=C\C(C)=O | > 4 mM (inactive) |
| NC(=O)CCn1c(=O)oc2ccccc21 | > 4 mM (inactive) |
| OCc1ccc2ncccc2c1 | > 4 mM (inactive) |
| Cc1cc(C)nc(N2CC(=O)N(C)C2=N)n1 | > 4 mM (inactive) |

| SMILES | Kd |
| --- | --- |
| Cc1cc(=O)[nH]c(N2CCN(Cc3ccccc3)CC2)n1 | > 4 mM (inactive) |
| COC(=O)Cn1c2ccccc2c2nc(C)sc21 | > 4 mM (inactive) |
| CC(=O)c1cc(CN2C(=O)c3ccccc3C2=O)cs1 | > 4 mM (inactive) |
| CCSc1nnc2[nH]c(=O)cc(C)n12 | > 4 mM (inactive) |
| NCCc1c[nH]c2ccccc12 | > 4 mM (inactive) |
| C=C1C2CC[C@@]3(C)[C@H](c4ccoc4)OC(=O)C[C@]13O[C@H]1CC(=O)C(C)(C)C(CC(=O)OC)C21C (stereo partly specified) | > 4 mM (inactive) |
| O=C(Nc1ccon1)c1cc2c(s1)CCCC2 | > 4 mM (inactive) |
| O=C(Oc1ccc2c(c1)OCC2=O)c1ccccc1 | > 4 mM (inactive) |
| O=c1cc(O)n(-c2ccc(F)cc2)c(=S)[nH]1 | > 4 mM (inactive) |
| CC(=O)Nc1ccc2c(C)cc(=O)[nH]c2c1 | > 4 mM (inactive) |
| NC(=O)C1CCN(C(=S)Nc2ccccc2)CC1 | > 4 mM (inactive) |
| COC(=O)c1ccc2nccnc2c1 | > 4 mM (inactive) |
| C[C@@H]1CC[C@H]2[C@@H](C)C(=O)O[C@@H]3OC4(C)CC[C@@H]1[C@]32OO4 | > 4 mM (inactive) |
| Cc1cc(O)c(C)c(O)c1C(=O)O | > 4 mM (inactive) |
| O=C(NN1C(=O)CSC1=S)c1ccccc1 | > 4 mM (inactive) |
| Cc1c(-c2ccc(F)cc2)[n+](=O)c2c(n1[O-])CCC2 | > 4 mM (inactive) |
| OCc1ccccc1CN1CCOCC1 | > 4 mM (inactive) |
| CCOC(=O)Nc1ccc2c(C)cc(=O)oc2c1 | > 4 mM (inactive) |
| Cc1cc(C(=O)Nc2cccnc2)cs1 | > 4 mM (inactive) |
| O=S1(=O)NC(=NCc2ccco2)c2ccccc21 | > 4 mM (inactive) |
